# Assay results published in US7192731B2, “Methods for efficient extraction of carotenoids using an esterase” (The State of Israel, Ministry of Agriculture & Rural …, priority 2001, dated 2007).
# B1: pancreatic lipase: pancreatic lipase from porcine, Sigma (protein, UniProt P00591 1-450, looked up)
# Pancreatic triacylglycerol …: SEVCFPRLGCFSDDAPWAGIVQRPLKILPWSPKDVDTRFLLYTNQNQNNYQELVADPSTITNSNFRMDRKTRFIIHGFIDKGEEDWLSNICKNLFKVESVNCICVDWKGGSRTGYTQASQNIRIVGAEVAYFVEVLKSSLGYSPSNVHVIGHSLGSHAAGEAGRRTNGTIERITGLDPAEPCFQGTPELVRLDPSDAKFVDVIHTDAAPIIPNLGFGMSQTVGHLDFFPNGGKQMPGCQKNILSQIVDIDGIWEGTRDFVACNHLRSYKYYADSILNPDGFAGFPCDSYNVFTANKCFPCPSEGCPQMGHYADRFPGKTNGVSQVFYLNTGDASNFARWRYKVSVTLSGKKVTGHILVSLFGNEGNSRQYEIYKGTLQPDNTHSDEFDSDVEVGDLQKVKFIWYNNNVINPTLPRVGASKITVERNDGKVYDFCSQETVREEVLLTLNPC
# Key:
# lipase = assay: Effect of CaCl2 and NaCl on lipase activity (deestrification of red-pepper carotenoids); type: biochemical; conditions: 150 mM NaCl without CaCl2
# Method: The activity of lipase at pH 7.6 at 37.0° C. for 18 hours on the deestrification of red-pepper carotenoids was measured in the presence of CaCl2 and NaCl.
# [1] = Enzymatic deesterification of paprika oleoresin carotenoids by lipases, HPLC; type: biochemical; conditions: similar assays, 37° C.
# Method: HPLC was conducted on a Shimadzu LC-10 AT equipped with SCL-10A Shimadzu diode array detector. Photodiode array measurements of spectral properties from the individual peaks (from 260 to 540 nm) were determined at the upslope, apex and downslope. The column (Merck RP-18e 3.4×250 […], 5-μm particles) was used for HPLC separations. The peaks were detected at 450 and 474 nm.
# Paprika oleoresin (20 mg) was mixed with TWEEN-20 (200 μl) or deoxycholate (100 mg) and 10 ml of H2O. The emulsion has been shaken at 37° C. for 24 hours. Extraction of carotenoids was performed by the addition of 4 ml of ethanol and 5 ml of hexane. The extraction with hexane was done repeatedly until no color could be observed in the extracts. The combined hexane extracts were washed with water (25 ml) and dried over anhydrous sodium sulfate for HPLC determination of the carotenoids.
# Immobilized lipase from Candida rugosa (Sigma-Aldrich Corp., St Louis, Mo.). Following use in deesterification, the enzyme-bearing beads are recovered by precipitation at 15 K RPM, and stored at 4° C. until reuse.
# Immobilized lipase beads may be recycled by precipitation, and reused. […] FIG. 8 compares the efficiency of deesterification with fresh, once-, and twice-recycled immobilized lipase, quantifying the efficient reuse of the immobilized enzyme with paprika oleoresin. […]
Molecule,deestrification (lipase),deesterification of paprika carotenoids compared with lipase amano 30 [1]
[Cl-].[Na+] [NaCl],87%,–
B1,–,far poorer results
